Reference: patent publication US20100063466A1, “ABSORBENT ARTICLE” (SCA Hygiene Products AB, priority 2006, published 2010)

What was measured:
[1] = Measurement of water activity of salt solutions; format: physicochemical; conditions: different concentrations of salt in Elga-H2O; FIG. 8
Method: Water activity is measured as follows. The water activity meter is from Aqua Lab, Model Series 3 TE, […]. (U.S. Pat. No. 5,816,704). A specimen, a solution with different additions of different salts in Elga-H2O or synthetic urine, test liquid 2. was placed in a plastic cup. The quantity is not critical, but it is important that the bottom surface of the plastic cup is covered. The specimen is moved into the test chamber, which is closed, and the measurement commences. When the test value is stable, a green light flashes and the water activity can be read off digitally. The salts that were tested were: NaCl, KCl, NH4Cl, KC2H3O2 (K acetate), Na C2H3O2 (Na acetate).
The water activity was measured in Elga-H2O (USF Elga, distilled water) and synthetic urine, test liquid 2.
The water activity was measured according to method 4, but with different concentrations of salt in Elga-H2O.

E. coli = conditions: FIG. 4
Text: (§1) Absorbent test specimens were punched out from an absorbent core produced in a test plant. A standard method for mat-forming of a core was used during production of the core in the test plant. The absorbent test specimen included a homogeneous mixture of fluff pulp, 0.72 g Weyerhauser pulp (NB 416) and 0.48 g of superabsorbent polymer (SAP) (Degussa SXM9135). The absorbent core, was compressed to a bulk of around 8-10 cm^3/g. The size of the punched-out test items was 5 cm in diameter, the weight was about 1.2 g.
(§2) 16 ml (corresponding to a maximum absorption capacity of a test specimen according to method 1) of test liquid 1 containing the bacteria were added to a test specimen placed in plastic tubs, and a lid was fitted on the tubs. The tubs were turned upside down and incubated in a warm cabinet at 35° C. After incubation for 0, 6 and 12 hours, the test samples were placed in a plastic bag with peptone water and the content was homogenized (agitated and worked up) in a stomacker for 3 minutes. The homogenate was diluted in dilution tubes with peptone water and a microbiological culture was spread on agar plates. Slanetz Bartley agar was used for E. faecalis, and Drigalski agar for E. coli and P. mirabilis. The specimens were incubated at 35° C. for 1-2 days before the colonies were counted and the log CFU/ml calculated. Control tests were also carried out with absorbent cores without NaCl.
(§3) Bacteria were cultured in nutrient broth and diluted to the desired concentration of about Log 3.3 in test liquid 1 (method 4). Absorbent test specimens were produced according to method 1. 29 (high), 22 (medium) and 12 (low) % by weight NaCl (% dry) were added to the core, corresponding to 3 (high), 2 (medium) and 1 (low) % by weight (% wet) in the wet product. This proportion also applies to the other examples. The bacterial growth was measured according to method 3.

P. mirabilis = conditions: FIG. 4
Text: as §1, §2, §3

E. faecalis = conditions: FIG. 4
Text: as §1, §2, §3

Proteus mirabilis = conditions: 29% by weight of NaCl (% dry); after 6 and 8 hours; FIG. 5
Text: as §1
(§4) Absorbent test specimens were produced according to method 1.
as §4

[2] = 3% added salt (% wet), NaCl high, after 12 hours, 35° C, test liquid 1
[3] = 29, 22 and 12 % by weight NaCl (% dry), after 6 and 12 hours

Compound	water activity as the concentrations of salt increase [1]	growth of E. coli (E. coli; [2]) [log CFU/ml]	growth of E. coli compared with the control tests (E. coli; [3])	growth of P. mirabilis (P. mirabilis; [2]) [log CFU/ml]	growth of P. mirabilis compared with the control tests (P. mirabilis; [3])	growth of E. faecalis (E. faecalis; [2]) [log CFU/ml]	growth of E. faecalis compared with the control tests (E. faecalis; [3])	development of NH3, ranking among specimens (Proteus mirabilis)
Cl.N [NH4Cl]	drops	–	–	–	–	–	–	–
CC(=O)[O-].[Na+] [Na acetate]	drops	–	–	–	–	–	–	–
[Cl-].[Na+] [NaCl]	drops	< 5.5	lower	< 5.5	lower	< 5.5	lower	lowest
